In patent EP4647082A1, “PHARMACEUTICAL COMPOSITION COMPRISING A CGRP RECEPTOR ANTAGONIST FOR THE TREATMENT OF ACUTE MIGRAINE” (NUVIE BIO, Inc., priority 2024, dated 2025):
Bridge positions count the residues as written; N and C are the ends. Square brackets hold non-standard residues; d marks the D form. Peptide text beside a SMILES is read from it. * marks the point of attachment. Phe(2-CONH2) = NC(=O)c1ccccc1C[C@H](N)C(=O)O; Orn(iPr) = CC(C)NCCC[C@H](N)C(=O)O; Oxazole2carbonyl = O=C(c1ncco1)*; 3Pal = N[C@@H](Cc1cccnc1)C(=O)O

Assay: Degradation rates of 1 mg/mL solutions of AXN-001 at different pH and temperatures over 30 days
Assay type: physicochemical
Procedure: To achieve the higher pH values, an isotonic 10 mM phosphate buffer was used.
The degradation rates were then determined for 1 mg/mL solutions of AXN-001 at pH 3.5, 4.5, 5.5, 6.5, and 7.5, when kept at 2-8°C, 25°C, 40°C, and 60°C for 30 days. Table 1: Degradation rates
Degradation rates at 2-8° C were not determined ("n.d.") because degradation could not be measured at thirty days (with the exception of pH 7.5).

CC(C)NCCC[C@@H]1NC(=O)[C@@H](NC(=O)[C@H](Cc2ccccc2C(N)=O)NC(=O)[C@H](NC(=O)c2ncco2)C(C)C)CSSC[C@@H](C(=O)N[C@@H](Cc2cccnc2)C(N)=O)NC(=O)[C@H](Cc2ccccc2)NC(=O)[C@@H]2CCCN2C(=O)CNC(=O)[C@H](C(C)C)NC(=O)[C@H](CC(=O)O)NC1=O [AXN-001, Oxazole-2-carbonyl-D-Val-Phe(2-Cbm)-c(Cys-Orn (iPr)-Asp-Val-Gly-Pro-Phe-Cys)-3Pal-NH2] (Oxazole2carbonyl-[dV][Phe(2-CONH2)]C[Orn(iPr)]DVGPFC[3Pal]-NH2; disulfide 3-10)
Degradation Rates (pH 3.5, 25°C): 0.058 %/day
Degradation Rates (pH 3.5, 40°C): 0.20 %/day
Degradation Rates (pH 3.5, 60°C): 1.50 %/day
Degradation Rates (pH 4.5, 25°C): 0.019 %/day
Degradation Rates (pH 4.5, 40°C): 0.12 %/day
Degradation Rates (pH 4.5, 60°C): 1.19 %/day
Degradation Rates (pH 5.5, 25°C): 0.007 %/day
Degradation Rates (pH 5.5, 40°C): 0.23 %/day
Degradation Rates (pH 5.5, 60°C): 3.18 %/day
Degradation Rates (pH 6.5, 25°C): 0.039 %/day
Degradation Rates (pH 6.5, 40°C): 0.54 %/day
Degradation Rates (pH 6.5, 60°C): 3.47 %/day
Degradation Rates (pH 7.5, 2-8°C): 0.02 %/day
Degradation Rates (pH 7.5, 25°C): 0.605 %/day
Degradation Rates (pH 7.5, 40°C): 1.62 %/day
Degradation Rates (pH 7.5, 60°C): 5.55 %/day
